Assay [1] relates to Enterococcus faecium. The experiment in a line: Minimum inhibitory concentration against vancomycin-A Enterococcus faecium in the presence of 30% bovine serum (n=1) (range = 4>128mg/L). It is filed as functional.
In assay [2] the test system is Staphylococcus haemolyticus. Description: Minimum inhibitory concentration against Staphylococcus haemolyticus in the presence of 30% bovine serum. In kind it is functional.
Assay [3] concerns Staphylococcus epidermidis. The experiment in a line: Minimum inhibitory concentration against methicillin-sensitive Staphylococcus epidermidis in the presence of 30% bovine serum. In kind it is functional.
For assay [4], the system named is Staphylococcus aureus. Description: Minimum inhibitory concentration against methicillin-sensitive Staphylococcus aureus.
In assay [5] the test system is Staphylococcus aureus. Description: Minimum inhibitory concentration against methicillin-resistant Staphylococcus aureus.
The subject of assay [6] is Enterococcus faecalis. Description: Minimum inhibitory concentration against vancomycin-sensitive Enterococcus faecalis in the presence of 30% bovine serum(n=3)(range = 0.25-0.5mg/l). It is filed as functional.
Assay [7] has as its system Enterococcus faecium. The experiment in a line: Minimum inhibitory concentration against vancomycin-sensitive Enterococcus faecium in the presence of 30% bovine serum(n=1). In kind it is functional.
Assay [8] has as its system Staphylococcus epidermidis. The experiment in a line: Minimum inhibitory concentration against methicillin-resistant Staphylococcus epidermidis in the presence of 30% bovine serum. It is filed as functional.
Assay [9] has as its system Enterococcus faecalis. The experiment in a line: Minimum inhibitory concentration against vancomycin-A Enterococcus faecalis in the presence of 30% bovine serum(n=4) (range = 128>128 mg/L). It is filed as functional.
Assay [10] has as its system Enterococcus faecalis. The experiment in a line: Minimum inhibitory concentration against vancomycin-A Enterococcus faecalis in the presence of 30% bovine serum(n=4) (range = 64-128mg/L). It is filed as functional.
Assay [11] deals with Enterococcus faecium. Description: Minimum inhibitory concentration against vancomycin-A Enterococcus faecium in the presence of 30% bovine serum (n=1) (range = 64>128mg/L). It is filed as functional.
In assay [12] the test system is Enterococcus faecalis. The experiment in a line: Minimum inhibitory concentration against vancomycin-sensitive Enterococcus faecalis in the presence of 30% bovine serum(n=3). It is filed as functional.
For assay [13], the system named is Enterococcus faecalis. The experiment in a line: Minimum inhibitory concentration against vancomycin-A Enterococcus faecalis (n=4) (range = 4-128mg/L).
The test system of assay [14] is Enterococcus faecium. The experiment in a line: Minimum inhibitory concentration against vancomycin-A Enterococcus faecium in the presence of 30% bovine serum (n=1) (range = 2-128mg/L). It is filed as functional.
Assay [15] concerns Enterococcus faecium. The experiment in a line: Minimum inhibitory concentration against vancomycin-A Enterococcus faecium in the presence of 30% bovine serum (n=1). In kind it is functional.
For assay [16], the system named is Enterococcus faecalis. The experiment in a line: Minimum inhibitory concentration against vancomycin-sensitive Enterococcus faecalis in the presence of 30% bovine serum (n=3) (range = 8-4). It is filed as functional.
The test system of assay [17] is Enterococcus faecium. The experiment in a line: Minimum inhibitory concentration against vancomycin-sensitive Enterococcus faecium in the presence of 30% bovine serum (n=1). In kind it is functional.
Assay [18] deals with Enterococcus faecium. The experiment in a line: Minimum inhibitory concentration against vancomycin-A Enterococcus faecium in the presence of 30% bovine serum in the presence of 30% bovine serum (n=1). It is filed as functional.
The subject of assay [19] is Enterococcus faecalis. Description: Minimum inhibitory concentration against vancomycin-A Enterococcus faecalis in the presence of 30% bovine serum (n=4). In kind it is functional.
Assay [20] deals with Enterococcus faecalis. Description: Minimum inhibitory concentration against vancomycin-sensitive Enterococcus faecalis in the presence of 30% bovine serum(n=3)(range = 0.5-1 mg/l). In kind it is functional.
Assay [21] deals with Enterococcus faecium. Description: Minimum inhibitory concentration against vancomycin-A Enterococcus faecium in the presence of 30% bovine serum (n=1) (range = 0.5-16mg/l). In kind it is functional.
The subject of assay [22] is Enterococcus faecalis. Description: Minimum inhibitory concentration against vancomycin-sensitive Enterococcus faecalis in the presence of 30% bovine serum (n=3) (range = <0.125-0.25). In kind it is functional.
In assay [23] the test system is Enterococcus faecalis. The experiment in a line: Minimum inhibitory concentration against vancomycin-A Enterococcus faecalis (n=4) (range = 0.25-8mg/L).

In brackets after ≈: the same amount, converted by molar mass. Bounds are passed on as bounds.

Consider `CCCCc1ccc(CN(C)[C@H]2C(=O)N[C@@H]3Cc4ccc(cc4)Oc4cc5cc(c4O[C@@H]4OC(C(=O)O)C(O)[C@H](O)C4N)Oc4ccc(cc4Cl)[C@@H](O)C4NC(=O)[C@H](NC(=O)[C@@H]5NC(=O)[C@@H](NC3=O)c3cc(cc(O)c3Cl)Oc3cc2ccc3O)c2ccc(O)c(c2)-c2c(O[C@H]3O[C@H](CO)[C@@H](O)[C@H](O)[C@@H]3O)cc(O)cc2[C@@H](C(=O)O)NC4=O)cc1` (stereo not given in full), for which the MIC (commonly the lowest concentration that inhibits growth of the organism) in [1] was above 128 µg/mL; in assay [2] it was 32 µg/mL; in assay [3] it was 1 µg/mL; in assay [4], 1 µg/mL (≈ 0.589 µM); in [5], 1 µg/mL (≈ 0.589 µM); in assay [6], 0.5 µg/mL. For the same molecule, the MIC worked out at 0.5 µg/mL in [7], 8 µg/mL in assay [8] and 128 µg/mL in assay [9].
For `CCCCc1ccc(CNC2[C@H](Oc3c4cc5cc3Oc3ccc(cc3Cl)[C@@H](O)C3NC(=O)[C@H](NC(=O)[C@@H]5NC(=O)[C@H]5NC(=O)[C@@H](Cc6ccc(cc6)O4)NC(=O)[C@H](NC)c4ccc(O)c(c4)Oc4cc(O)c(Cl)c5c4)c4ccc(O)c(c4)-c4c(O[C@H]5O[C@H](CO)[C@@H](O)[C@H](O)[C@@H]5O)cc(O)cc4[C@@H](C(=O)O)NC3=O)OC(C(=O)O)C(O)[C@@H]2O)cc1` (stereo not given in full), the MIC in assay [10] is 128 µg/mL; in assay [2], 16 µg/mL; in assay [11] it was above 128 µg/mL; in assay [3], 0.25 µg/mL; in assay [4] it was 0.25 µg/mL (≈ 0.147 µM); in [12], below 0.125 µg/mL. The MIC in assay [5] was found to be 0.25 µg/mL (≈ 0.147 µM); in [7], 2 µg/mL; in [8], 4 µg/mL.
Take `CN(Cc1ccc2ccccc2c1)[C@H]1C(=O)N[C@@H]2Cc3ccc(cc3)Oc3cc4cc(c3O[C@@H]3OC(C(=O)O)C(O)[C@H](O)C3NCc3ccc5ccccc5c3)Oc3ccc(cc3Cl)[C@@H](O)C3NC(=O)[C@H](NC(=O)[C@@H]4NC(=O)[C@@H](NC2=O)c2cc(cc(O)c2Cl)Oc2cc1ccc2O)c1ccc(O)c(c1)-c1c(O[C@H]2O[C@H](CO)[C@@H](O)[C@H](O)[C@@H]2O)cc(O)cc1[C@@H](C(=O)O)NC3=O` (stereo not given in full): the minimum inhibitory concentration (MIC) in assay [13] is 128 µg/mL (≈ 69.9 µM); in [14], above 128 µg/mL; in [2] it was 16 µg/mL; in assay [3] it was 2 µg/mL; in assay [4] it was 2 µg/mL (≈ 1.09 µM); in assay [12], below 0.125 µg/mL. Moreover, the MIC came out at 1 µg/mL (≈ 0.546 µM) in assay [5], 2 µg/mL in assay [7] and 16 µg/mL in [8].
Take `CN[C@H]1C(=O)N[C@@H]2Cc3ccc(cc3)Oc3cc4cc(c3O[C@@H]3OC(C(=O)NCCCN(C)C)C(O)[C@H](O)C3N)Oc3ccc(cc3Cl)[C@@H](O)C3NC(=O)[C@H](NC(=O)[C@@H]4NC(=O)[C@@H](NC2=O)c2cc(cc(O)c2Cl)Oc2cc1ccc2O)c1ccc(O)c(c1)-c1c(O[C@H]2O[C@H](CO)[C@@H](O)[C@H](O)[C@@H]2O)cc(O)cc1[C@@H](C(=O)NCCCN(C)C)NC3=O` (stereo not given in full): the MIC in assay [2] is 0.05 µg/mL; in assay [3] it was 1 µg/mL; in assay [4] it was 1 µg/mL (≈ 0.582 µM); in [12], 1 µg/mL; in assay [5], 2 µg/mL (≈ 1.16 µM); in assay [15], above 128 µg/mL. Further, the MIC in assay [7] is 1 µg/mL; in [9], 128 µg/mL.
Take `CN(Cc1ccc(-c2ccccc2)cc1)[C@H]1C(=O)N[C@@H]2Cc3ccc(cc3)Oc3cc4cc(c3O[C@@H]3OC(C(=O)O)C(O)[C@H](O)C3N)Oc3ccc(cc3Cl)[C@@H](O)C3NC(=O)[C@H](NC(=O)[C@@H]4NC(=O)[C@@H](NC2=O)c2cc(cc(O)c2Cl)Oc2cc1ccc2O)c1ccc(O)c(c1)-c1c(O[C@H]2O[C@H](CO)[C@@H](O)[C@H](O)[C@@H]2O)cc(O)cc1[C@@H](C(=O)O)NC3=O` (stereo not given in full): the minimal inhibitory concentration (MIC) is above 128 µg/mL in assay [1]; 32 µg/mL in [2]; 2 µg/mL in assay [3]; 1 µg/mL (≈ 0.583 µM) in assay [4]; 1 µg/mL (≈ 0.583 µM) in [5]; 0.5 µg/mL in assay [6]. Further, the MIC in assay [7] is 0.5 µg/mL; in assay [8] it was 16 µg/mL; in assay [9], 128 µg/mL.
Regarding `CN[C@H]1C(=O)N[C@@H]2Cc3ccc(cc3)Oc3cc4cc(c3O[C@@H]3OC(C(=O)O)C(O)[C@H](O)C3N)Oc3ccc(cc3Cl)[C@@H](O)C3NC(=O)[C@H](NC(=O)[C@@H]4NC(=O)[C@@H](NC2=O)c2cc(cc(O)c2Cl)Oc2cc1ccc2O)c1ccc(O)c(c1)-c1c(O[C@H]2O[C@H](CO)[C@@H](O)[C@H](O)[C@@H]2O)cc(O)cc1[C@@H](C(=O)O)NC3=O` (stereo not given in full), the MIC is 8 µg/mL in assay [16]; 8 µg/mL in assay [17]; 16 µg/mL (≈ 10.3 µM) in assay [4]; above 128 µg/mL in assay [18]; 16 µg/mL (≈ 10.3 µM) in [5]; above 128 µg/mL in [19].
As for `CN[C@H]1C(=O)N[C@@H]2Cc3ccc(cc3)Oc3cc4cc(c3O[C@@H]3OC(C(=O)O)C(O)[C@H](O)C3NCc3ccc5ccccc5c3)Oc3ccc(cc3Cl)[C@@H](O)C3NC(=O)[C@H](NC(=O)[C@@H]4NC(=O)[C@@H](NC2=O)c2cc(cc(O)c2Cl)Oc2cc1ccc2O)c1ccc(O)c(c1)-c1c(O[C@H]2O[C@H](CO)[C@@H](O)[C@H](O)[C@@H]2O)cc(O)cc1[C@@H](C(=O)O)NC3=O` (stereo not given in full), the MIC is 32 µg/mL in assay [2]; above 128 µg/mL in [11]; 2 µg/mL in assay [3]; 1 µg/mL in [20]; 2 µg/mL (≈ 1.18 µM) in assay [4]; 1 µg/mL (≈ 0.592 µM) in assay [5]. Also, the MIC in [7] came out at 2 µg/mL; in [19], 128 µg/mL; in assay [8] it was 16 µg/mL.
On to `CCCCOc1ccc(CNC2[C@H](Oc3c4cc5cc3Oc3ccc(cc3Cl)[C@@H](O)C3NC(=O)[C@H](NC(=O)[C@@H]5NC(=O)[C@H]5NC(=O)[C@@H](Cc6ccc(cc6)O4)NC(=O)[C@H](NC)c4ccc(O)c(c4)Oc4cc(O)c(Cl)c5c4)c4ccc(O)c(c4)-c4c(O[C@H]5O[C@H](CO)[C@@H](O)[C@H](O)[C@@H]5O)cc(O)cc4[C@@H](C(=O)O)NC3=O)OC(C(=O)O)C(O)[C@@H]2O)cc1` (stereo not given in full), for which the MIC in assay [2] is 32 µg/mL; in assay [11], above 128 µg/mL; in [3], 1 µg/mL; in assay [20], 1 µg/mL; in assay [4] it was 1 µg/mL (≈ 0.584 µM); in [5] it was 1 µg/mL (≈ 0.584 µM). Also, the MIC was determined as 1 µg/mL in [7], 128 µg/mL in assay [19] and 16 µg/mL in assay [8].
`CN(C)CCCNC(=O)C1O[C@@H](Oc2c3cc4cc2Oc2ccc(cc2Cl)[C@@H](O)C2NC(=O)[C@H](NC(=O)[C@@H]4NC(=O)[C@H]4NC(=O)[C@@H](Cc5ccc(cc5)O3)NC(=O)[C@H](N(C)Cc3ccc(C(=O)Oc5ccccc5)cc3)c3ccc(O)c(c3)Oc3cc(O)c(Cl)c4c3)c3ccc(O)c(c3)-c3c(O[C@H]4O[C@H](CO)[C@@H](O)[C@H](O)[C@@H]4O)cc(O)cc3[C@@H](C(=O)NCCCN(C)C)NC2=O)C(NCc2ccc(C(=O)Oc3ccccc3)cc2)[C@@H](O)C1O` (stereo not given in full): the minimum inhibitory concentration (MIC) in assay [2] is 2 µg/mL; in assay [3], 0.25 µg/mL; in assay [21], above 16 µg/mL; in [22], 0.25 µg/mL; in [4] it was 1 µg/mL (≈ 0.467 µM); in assay [5], 1 µg/mL (≈ 0.467 µM). The results for the MIC in assay [7] and in [8] were 0.5 µg/mL and 2 µg/mL, respectively.
Consider `CCCCc1ccc(CNC2[C@H](Oc3c4cc5cc3Oc3ccc(cc3Cl)[C@@H](O)C3NC(=O)[C@H](NC(=O)[C@@H]5NC(=O)[C@H]5NC(=O)[C@@H](Cc6ccc(cc6)O4)NC(=O)[C@H](N(C)Cc4ccc(CCCC)cc4)c4ccc(O)c(c4)Oc4cc(O)c(Cl)c5c4)c4ccc(O)c(c4)-c4c(O[C@H]5O[C@H](CO)[C@@H](O)[C@H](O)[C@@H]5O)cc(O)cc4[C@@H](C(=O)NCCCN(C)C)NC3=O)OC(C(=O)NCCCN(C)C)C(O)[C@@H]2O)cc1` (stereo not given in full), for which the MIC in [23] is 8 µg/mL (≈ 3.98 µM); in assay [2], 2 µg/mL; in [3] it was 0.25 µg/mL; in [21], 16 µg/mL; in assay [22], below 0.125 µg/mL; in [4], 1 µg/mL (≈ 0.497 µM). The MIC in assay [5] turned out to be 2 µg/mL (≈ 0.995 µM); in assay [7] it was 0.5 µg/mL; in assay [8], 2 µg/mL.
